Measurements published in patent US20250339396A1 (COSMAS THERAPEUTICS DEVELOPMENT INC., priority 2021, published 2025).

What was measured:
Solubility of Prodrug D = type: physicochemical
From the text: The solubility and stability of Prodrug D as synthesized in Example 2 were studied.

neuropathic (SNI) rats = assay: Sleep restoration in neuropathic rats, 24 h EEG/EMG recordings (REM, NREM, wakefulness, sleep fragmentation index); type: in vivo, rat; conditions: for NREM 24 h, mean difference (Bonferroni's multiple comparison test) / REM 24 h, mean difference (Bonferroni's multiple comparison test) / Wake 24 h, mean difference (Bonferroni's multiple comparison test) / SFI (sleep fragmentation index), mean difference (Bonferroni's multiple comparison test): Prodrug D 150 mg/kg, neuropathic (SNI) rats; for NREM 24 h, mean difference (Bonferroni's multiple comparison test) / REM 24 h, mean difference (Bonferroni's multiple comparison test) / Wake 24 h, mean difference (Bonferroni's multiple comparison test): 24 h EEG/EMG; for SFI (sleep fragmentation index), mean difference (Bonferroni's multiple comparison test): awakenings in 24 h divided by total sleep time in hours
Method: Wistar rats weighted 120 g at the beginning of the experiment were housed under standard conditions, at a constant temperature of 22° C., with food and water provided ad libitum and under a 12 h light/dark cycle (lights on at 7:00 AM; lights off at 7:00 PM). All experimental procedures and surgeries were approved by the Animal Ethics Committee of local institutional committee for animal use and care (McGill University, Canada), following the Canadian Institute of Health Research for animal care and scientific use.
Only animals presenting allodynia (mean 2.5 gr) 14 days after SNI surgery, were then implanted EEG/EMG electrode, for 24 hours electrical recording and non-allodynic rat were excluded.
Sham and neuropathic rats were deeply anesthetized with isoflurane (5% for induction, 2-3% for maintenance) and placed in a stereotaxic frame. For EEG monitoring, three stainless-steel epidural electrodes were positioned through 1.5 mm burr holes at-2 mm anteroposterior (AP) and −3 mm lateral (L), −4.5 mm AP and +3 mm L, −7 mm AP and […] according to bregma (Paxinos and Watson 2006). For the EMG signal, three flexible stainless-steel wires were implanted into the neck muscle. Then, wires and connectors were fixed to the skull using dental acrylic (Coltene/Whaledent Inc. USA). Rats were given 5 days to recovery (Ochoa-Sanchez, et al., 2011).
24-h after electrode implantation surgery, rats were placed for habituation in the recording room from 12:00 PM to 9:00 PM on a daily basis. During this time, the rats were placed in the recording chambers and connected to a flexible 6-flat cable (3M Scotchflex®), in a freely moving manner. No recordings were performed, but tolerance to the cable, and sleep behavior were observed. The day 5 of habituation, recordings were performed for 24 h, starting at 6:00 PM.
Prodrug D (150 mg/kg) was dissolved in 40% PEG 400 and 60% water (about 2.5 mL average for rats by gavage) and was administered at 6 am and 6 pm.
The amplification of EEG/EMG signals were at the total gain of 10.000. EEG/EMG signals were digitalized by a CED 1401 interface system, processed on-line, and analyzed off-line by Spike 2 software, in parallel with analog-to-digital samplings of amplified (Grass, P55) polygraphic signals (EEG; sampling rate, 100 or 200 Hz). Consecutive 10-s epochs were subjected to a Fast Fourier Transform (FFT) and EEG power spectra density was computed in the frequency range of 0-64 Hz (Ochoa-Sanchez, R et al., 2011).
Analysis was made offline using the spike 2 software (Cambridge). Three classical sleep stages are identified using EEG and EMG recordings. Wakefulness was determined by a sustained activity of EMG and low amplitude and high frequency of EEG. NREM (non-rapid eyes movement) sleep was characterized by high amplitude […] (1-4 Hz) and low muscle activity. REM (rapid eyes movement) sleep was marked with muscle atonia as observed in EMG and low amplitude […] in EEG (6-11). Only period longer than 10 seconds was marked for further analysis of awake, REM and NREM sleep, in order to eliminate the transitional period such as drowsiness (Ochoa-Sanchez, R et al., 2011).
Given the changes induced by the neuropathy on sleep parameters, we then calculate the sleep fragmentation index (SFI). SFI was calculated as the total number of awakenings in 24 h divided by the total sleep time in hours.
Data analysis was done using GraphPad Prism statistical software version 5.04 […]. One-way ANOVA was performed for 24 h time of REM, NREM and wakefulness as well as sleep fragmentation index. Post-hoc analyses were performed using the Bonferroni t-test comparisons. All data are expressed as mean±SEM. P<0.05 was considered significant.

[1] = SNI rats, 150 mg/kg by gavage at 6 am and 6 pm

SMILES: CC(=O)N(CCN(c1ccc(F)cc1)c1cccc(Br)c1)C(=O)OCOC(=O)CN.Cl [Prodrug D, ((acetyl(2-((3-bromophenyl)(4-fluorophenyl)amino)ethyl)carbamoyl)oxy)methyl 2-aminoacetate hydrochloride]
- solubility (Solubility of Prodrug D; aqueous with cosolvent or surfactant or cyclodextrin, in PEG400:water 40%:60% mixture): > 125 mg/mL
- solubility (Solubility of Prodrug D; in water): > 150 mg/mL
- NREM 24 h, mean difference (Bonferroni's multiple comparison test) (neuropathic (SNI) rats; Control vs SNI + Prodrug D): −236.5
- REM 24 h, mean difference (Bonferroni's multiple comparison test) (neuropathic (SNI) rats; Control vs SNI + Prodrug D): −107
- Wake 24 h, mean difference (Bonferroni's multiple comparison test) (neuropathic (SNI) rats; Control vs SNI + Prodrug D): 343.4
- SFI (sleep fragmentation index), mean difference (Bonferroni's multiple comparison test) (neuropathic (SNI) rats; Control vs SNI + Prodrug D): 0.2758
- REM time, NREM time and time in wakefulness during 24 h (neuropathic (SNI) rats; [1]): restore all the three parameters
- sleep fragmentation index (SFI) (neuropathic (SNI) rats; [1]): reverse the fragmentation
- NREM 24 h, mean difference (Bonferroni's multiple comparison test) (neuropathic (SNI) rats; Sham vs SNI + Prodrug D): −62.39
- REM 24 h, mean difference (Bonferroni's multiple comparison test) (neuropathic (SNI) rats; Sham vs SNI + Prodrug D): −44.39
- Wake 24 h, mean difference (Bonferroni's multiple comparison test) (neuropathic (SNI) rats; Sham vs SNI + Prodrug D): 106.8
- SFI (sleep fragmentation index), mean difference (Bonferroni's multiple comparison test) (neuropathic (SNI) rats; Sham vs SNI + Prodrug D): 0.01886
